Results as given in paper PMC3898417, “A peptide derived from TIMP-3 inhibits multiple angiogenic growth factor receptors and tumour growth and inflammatory arthritis in mice” (Angiogenesis, 2013).
One block for each molecule: values may come before it. Bridges are numbered along the chain shown (N, C = ends). Where no end group is shown, it is not given here.

Columns and labels:
[1] = tested on: recombinant human VEGFR-2; assay: Solid phase binding assay: competition with biotinylated-VEGF165; settings: plate-coated rhVEGFR-2-Fc; biotinylated-VEGF165 2.4 nM, 1 h room temperature; Fig. 1
Method: Ninety six-well plates were coated with the extracellular domain of recombinant human VEGFR-2 fused to the Fc domain of human IgG1 (rhVEGFR-2, R&D Systems, UK) by overnight incubation followed by blocking in 5 % bovine serum albumin/PBS. […] After washing, the biotinylated-VEGF165 was detected with avidin-horse-radish peroxidase and OPD substrate (Sigma-Aldrich, UK) followed by spectrophotometry.

HuDMEC [2] = assay: VEGF165-induced cell proliferation (BrdU); assay type: cell-based, human; settings: peptide 1 h then 0.5 nM VEGF165 24 h, up to 1 μM, n = 4
Method: Human dermal microvascular endothelial cells were serum-starved followed by incubating with p700 peptide for 1 h and then 0.5 nM of VEGF165 for 24 h at 37 °C. Cell proliferation was determined using a BrdU cell proliferation assay kit (Merck Chemicals Ltd, Nottingham, UK).

HuDMEC [3] = assay: VEGF165-induced cell migration (Boyden chamber); assay type: cell-based, human; settings: 0.5 nM VEGF165, 4.5 h, up to 1 μM, n = 4
Method: The ability of the p700 peptide to inhibit VEGF165-induced EC migration was determined using a multi-well Boyden chamber (Neuro Probe, Gaithersburg, USA). Briefly, serum-starved HuDMEC were treated with p700 for 1 h, washed and plated in the upper chamber in EBM-2 medium containing 1 % FCS on an 8 μm fibronectin pre-coated polycarbonate filter (Neuro Probe, Gaithersburg, USA). The cells were then left to migrate across the filter for 4.5 h at 37 °C with media containing 0.5 nM VEGF165 in the presence and absence of inhibitors in the lower chamber. After the incubation, non-migrating cells on the upper side of the membrane were scraped off and the migrated cells were stained with Hema Gurr® rapid staining kit (Merck Chemicals Ltd, Nottingham, UK). Migrated cells were counted using a light microscope at 160× magnification in three random fields per well of three separate wells.

HuDMEC [4] = assay: Tube formation assay on Matrigel; assay type: cell-based, human; settings: for inhibition of VEGF165-induced HuDMEC tube formation / inhibition of tubule formation in response to VEGF121: 1 μM peptide, n = 4; for inhibition of VEGF165-induced HuDMEC tube formation: 0.5 nM VEGF165, 6 h; for inhibition of bFGF-induced tubule formation: 1.6 nM bFGF
Method: Serum-starved HuDMEC were seeded onto Matrigel™ matrix pre-coated 96 well plates (BD Biosciences, Cowley, Oxford, UK) at a density of 1 × 10^4 cells/well in 100 μl EBM-2 medium. Peptides were then added into each corresponding well and incubated for 1 h at 37 °C, followed by stimulated with growth factors, 0.5 nM VEGF165, 1 nM PDGF-BB or 1.6 nM bFGF, to induce tubule development. The tubules formed were examined 6 h after stimulation under a low power (40×) light microscope. Images were captured and analysed by measuring the average tubule length using ImageJ software (National Institutes of Health, USA).

VEGFR-2 [5] = assay: Immunoblotting of VEGF165-induced VEGFR-2 phosphorylation; assay type: cell-based, human; settings: 1 μM, HuDMEC, western blot; n = 3
Method: (§1) Transfected HUVEC or HuDMEC pre-treated with 1 μM test peptides for 1 h, were stimulated with 0.5 nM of VEGF165 for 2, 5 or 10 min. Cells were lysed and phosphorylated proteins detected by western blotting using phospho-specific antibodies to either VEGFR-2, Erk1/2 or PI3K (New England BioLabs, UK). Band intensities were quantified using Bio-Rad Quantity One Analysis software and normalized using U, un-stimulated control, as 0 %; and VEGF165, positive control, as 100 % of protein phosphorylation.

PI3K = assay: Immunoblotting of VEGF165-induced PI3K phosphorylation; assay type: cell-based, human; settings: 1 μM, HuDMEC, western blot; n = 3
Method: as §1

FGFR-1 = assay: Phosphorylation RTK sandwich ELISA; assay type: cell-based, human; settings: HuDMEC, peptide 1 h, ligand 5 min, n = 3
Method: (§2) Serum-deprived HuDMEC were pre-treated with test peptides for 1 h and then stimulated with growth factors (0.5 nM VEGF165, 1.6 nM bFGF, 1 nM PDGF-BB, 1.6 nM hepatocyte growth factor, 100 ng/ml EGF or 100 ng/ml insulin-like growth factor I) for 5 min. Cells were then lysed and phosphorylated proteins detected using (a) a receptor tyrosine kinase array (Human Phospho-Receptor Tyrosine Kinase Array Kit, R&D Systems Ltd.) or (b) sandwich ELISA (Duo-sets, R&D Systems Ltd.) according to the manufacturer’s instructions.

FGFR-2α = assay: Phosphorylation RTK sandwich ELISA; assay type: cell-based, human; settings: HuDMEC, peptide 1 h, ligand 5 min, n = 3
Method: as §2

FGFR-3 = assay: Phosphorylation RTK sandwich ELISA; assay type: cell-based, human; settings: HuDMEC, peptide 1 h, ligand 5 min, n = 3
Method: as §2

FGFR-4 = assay: Phosphorylation RTK sandwich ELISA; assay type: cell-based, human; settings: HuDMEC, peptide 1 h, ligand 5 min, n = 3
Method: as §2

HGFR = assay: Phosphorylation RTK sandwich ELISA; assay type: cell-based, human; settings: HuDMEC, peptide 1 h, 1.6 nM hepatocyte growth factor 5 min
Method: as §2

PDGFR-α = assay: Phosphorylation RTK sandwich ELISA; assay type: cell-based, human; settings: HuDMEC, peptide 1 h, ligand 5 min, n = 3
Method: as §2

VEGFR-1 [6] = assay: Phosphorylation RTK sandwich ELISA; assay type: cell-based, human; settings: HuDMEC, peptide 1 h, ligand 5 min, n = 3
Method: as §2

VEGFR-2 [7] = assay: Phosphorylation RTK sandwich ELISA; assay type: cell-based, human; settings: HuDMEC, peptide 1 h, ligand 5 min, n = 3
Method: as §2

VEGFR-3 = assay: Phosphorylation RTK sandwich ELISA; assay type: cell-based, human; settings: HuDMEC, peptide 1 h, ligand 5 min, n = 3
Method: as §2

[8] = tested on: insulin-like growth factor 1 receptor; assay: Phosphorylation RTK sandwich ELISA; assay type: cell-based, human; settings: HuDMEC, peptide 1 h, 100 ng/ml insulin-like growth factor I 5 min
Method: as §2

EGFR = assay: Phospho-receptor tyrosine kinase array; assay type: cell-based, human; settings: HuDMEC, 100 ng/ml EGF 5 min, phospho-RTK array, preliminary screen, data not shown
Method: as §2

4T1 mammary tumour = assay: Syngeneic mammary tumour model (4T1); assay type: in vivo, BALB/c mice
Method: 10^6 4T1 cells were subcutaneously (s.c.) implanted into the right flank of 5–6 weeks old female BALB/c mice (Charles River Laboratories, Margate, UK) and grown until the tumour size reached 100–350 mm^3. The tumour sizes were measured using callipers as described previously. Once the size of the tumours reached 100–350 mm^3, mice were randomized into control and treatment groups and injected with either vehicle alone (PBS), 0.025, 0.25 or 2.5 mg/kg of p700 peptide in PBS, either directly into the tumour (i.t.) once per week for 2 doses; or intravenously (i.v.) every other day for 5 doses. At the end of the experiment, animals were culled and tumours and normal tissues, including lung and liver, excised and fixed with 10 % neutral buffered formalin for subsequent analysis, which included general histology and quantitative measurement of microvascular density (MVD) and necrosis. For MVD measurement, rabbit-anti-mouse CD31 (AbD Serotech, Kidlington, Oxford, UK) antibody was used and sections were stained according to standard immunohistological staining protocols for formalin-fixed tissue sections. Microvessel density was estimated by measuring the percentage of CD31 positive staining in the tumour sections (15 areas per tumour slide, 7 tumour slides per group) using AnalySIS^^D image analysis software (Olympus, UK). For the necrotic area inside the tumour, tumour slides were stained with H&E. Images were measured at 200× magnification, photographed (15 areas per tumour slide, 7 tumour slides per group) and analysed by AnalySIS^^D image analysis software (Olympus, UK). Normal tissues including lung and liver were stained with H&E to study tumour metastasis. Total number of metastases per mouse was determined as the number of metastatic foci on five sections for each animal (n = 7). Incidence of metastasis was calculated as the percentage of mice with one or more metastatic nodules in the tissues. Metastasis severity was scored as follows: […], minimal (score 1 = ≤ 4 metastatic nodules), medium (score 2 = 5–7 metastatic nodules) or extensive involvement (score 3 = ≥ 8 metastatic nodules). Each nodule contained ≥5 nuclei.

[9] = tested on: primary human synovial cells (SC); assay: In vitro synovial cell invasion assay (GFR-Matrigel); assay type: cell-based; settings: rheumatoid arthritis synovial cells, peptide 1 h, 100 ng/ml PDGF-BB 22 h; n = 3
Method: Synovial cell invasion was determined using a GFR-Matrigel™ invasion assay kit (BD Biosciences, USA). Serum-starved SC were treated with peptide for 1 h, followed by stimulation with 100 ng/ml PDGF-BB at 37 °C for 22 h. After incubation, non-invading cells on the upper side of the chamber were removed and the invaded cells on the lower side of the membrane were fixed with methanol and stained with Hema Gurr® rapid staining solution (Merck Chemicals, Ltd.). Cells were counted using a light microscope at 160× magnification in 3 random fields per well of 3 separate wells.

[10] = tested on: collagen-induced arthritis; assay: Collagen-induced-arthritis mouse (CIA) model; assay type: in vivo, DBA-1 mice; settings: 2.5 mg/kg i.v. every 2 days
HuDMEC [11] = assay: Toxicity to HuDMEC by propidium iodide staining; assay type: cell-based, human; settings: data not shown
FGFR1 = settings: cited from earlier work
Description: (§3) TIMP-3 appears to bind VEGFR-2 specifically, with no inhibition of the closely related VEGFR-1, FGFR1 or PDGFR-β receptors.

PDGFR-β = settings: cited from earlier work
Description: as §3

VEGFR-1 [12] = settings: cited from earlier work
Description: as §3

Molecule: fibrinopeptide A (ADSGEGDFLAEGGGVR; Fibrinopeptide A; UniProt P02671 20-35, looked up) [control peptide, 16 amino acid biologically inert control peptide, purchased from Bachem, reference compound]
- maximum inhibition of VEGF165-induced cell proliferation (HuDMEC [2]): no significant effect
- maximum inhibition of VEGF165-induced migration (HuDMEC [3]): no significant effect
- inhibition of VEGF165-induced HuDMEC tube formation (HuDMEC [4]): no significant effect
- inhibition of tubule formation in response to VEGF121 (HuDMEC [4]): no significant effect
- inhibition of VEGF165-induced VEGFR-2 phosphorylation (VEGFR-2 [5]): no significant effect
- inhibition of VEGF165-induced phosphorylation of PI3K (PI3K): no significant effect
- concentration showing some toxicity to HuDMEC (HuDMEC [11]): ≥ 10 µM

B1: full length TIMP-3: recombinant human tissue inhibitor of metalloproteinases-3, His-tagged, from High Five insect cells (protein)
chain: CTCSPSHPQDAFCNSDIVIRAKVVGKKLVKEGPFGTLVYTIKQMKMYRGFTKMPHVQYIHTEASESLCGLKLEVNKYQYLLTGRVYDGKMYTGLCNFVERWDQLTLSQRKGLNYRYHLGCNCKIKSCYYLPCFVTSKNECLWTDMLSNFGYPGYQSKHYACIRQKGGYCSWYRGWAPPDKSIINATDP
modifications: left off: His6, C-terminal, state not stated
- ability to inhibit the binding of VEGF165 to rhVEGFR-2 [1]: able to inhibit
- inhibition of bFGF-induced tubule formation (HuDMEC [4]; HuDMEC, 6 h, n = 3, Fig. 3b): some inhibition
- inhibition of VEGF165-induced VEGFR-2 phosphorylation (VEGFR-2 [5]): 45%
- inhibition of FGFR1 (FGFR1): no inhibition
- inhibition of PDGFR-β (PDGFR-β): no inhibition
- inhibition of VEGFR-1 (VEGFR-1 [12]): no inhibition

Now from value to molecule, other results behind:

- ability to inhibit the binding of VEGF165 to rhVEGFR-2 [1]: not
Molecule: GLKLEVNKYQYLLTGR [p323]

- ability to inhibit the binding of VEGF165 to rhVEGFR-2 [1]: able to inhibit
- inhibition of insulin-like growth factor 1 receptor phosphorylation [8]: no inhibition
- inhibition of EGFR (EGFR): not inhibited
Molecule: KIKSCYYLPCFVTSKN (disulfide 5-10 (inferred)) [p700]
- maximum inhibition of VEGF165-induced cell proliferation (HuDMEC [2]): 40%
- maximum inhibition of VEGF165-induced migration (HuDMEC [3]): 67%
- inhibition of VEGF165-induced HuDMEC tube formation (HuDMEC [4]): > 99%
- inhibition of tubule formation in response to VEGF121 (HuDMEC [4]): > 97%
- inhibition of PDGF-BB-induced tubule formation (HuDMEC [4]; HuDMEC, 1 nM PDGF-BB, 6 h, n = 3, Fig. 3b): inhibited
- inhibition of bFGF-induced tubule formation (HuDMEC [4]; HuDMEC, 6 h, n = 3, Fig. 3b): inhibited
- effect on tubule formation in the absence of VEGF (HuDMEC [4]; relative to untreated cells, data not shown): no effect
- inhibition of VEGF165-induced VEGFR-2 phosphorylation (VEGFR-2 [5]): approximately 50%
- inhibition of VEGF165-induced phosphorylation of PI3K (PI3K): approximately 50%
- inhibition of FGFR-1 phosphorylation (FGFR-1): significant inhibition
- inhibition of FGFR-2α phosphorylation (FGFR-2α): significant inhibition
- inhibition of FGFR-3 phosphorylation (FGFR-3): significant inhibition
- inhibition of FGFR-4 phosphorylation (FGFR-4): significant inhibition
- inhibition of HGFR phosphorylation (HGFR): no inhibition
- inhibition of PDGFR-α phosphorylation (PDGFR-α): significant inhibition
- inhibition of VEGFR-1 phosphorylation (VEGFR-1 [6]): significant inhibition
- inhibition of VEGFR-2 phosphorylation (VEGFR-2 [7]): significant inhibition
- inhibition of VEGFR-3 phosphorylation (VEGFR-3): significant inhibition
- increased tumour necrosis (4T1 mammary tumour; H&E sections, treated group vs control): failed to reach significance
- reduction in microvascular density (anti-CD31 staining) (4T1 mammary tumour; both treatment groups (i.t. and i.v.) compared to control groups, n = 7 tumours/group): approximately 50%
- effect on tumour growth, intravenous dosing (4T1 mammary tumour; i.v. every 2 days, 0.25 mg/kg or above, 4T1 s.c. in BALB/c mice, n = 7): almost totally abolished tumour growth
- decreased metastases (4T1 mammary tumour; lung and liver H&E sections, treated group vs control): failed to reach significance
- effect on tumour growth, intra-tumour dosing (4T1 mammary tumour; weekly i.t. dose of 0.25 mg/kg, 4T1 s.c. in BALB/c mice, n = 7): almost totally abolished tumour growth
- inhibition of PDGF-BB induced synovial cell invasion [9]: approximately 40%
- CIA progression ([10]; 7 doses, vehicle n = 8, p700 n = 10): significantly inhibited
- clinical presentation of disease (arthritis score) ([10]; p < 0.001 2-way ANOVA): reduced
- hind paw inflammation (hind paw volume) ([10]; plethysmometry, p < 0.05 2-way ANOVA, AUC NS): reduced
